Read-outs that look alike come from different tables or passages of the source.
Assays:
Lactobacillus gasseri = assay: MIC against gut bacterium Lactobacillus gasseri; type: cell-based
[1] = tested on: Fecal microbiota preparation; assay: MIC against fecal microbiota preparation; type: cell-based; settings: Fecal microbiota preparation from OpenBiome tested at 1000-fold dilution
Outline: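 Broth microdilution in brucella broth with hemin and vitamin K or supplemented BHIS; MRS broth for lactobacilli, sodium lactate added for Veillonella. Incubation 24 h or 48 h at 37° C anaerobically, except Corynebacterium and Lactobacillus grown aerobically.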

E. faecium NCTC7171 = assay: MIC against E. faecium; type: cell-based, Enterococcus faecium; settings: Enterococcus faecium
C. difficile = assay: MIC by broth microdilution against C. difficile strains; type: cell-based, Clostridioides difficile

O=C(O)c1ccc2oc(NC(=O)c3cc(Oc4cccc(OC(F)(F)F)c4)ccn3)nc2c1 [Compound 1, Sodium 2-(4-(3-(trifluoromethoxy)phenoxy)picolinamido)benzo[d]oxazole-5-carboxylate]
MIC (Lactobacillus gasseri; Lactobacillus gasseri strain HM-644, Table 7): >16 µg/mL
MIC (Lactobacillus gasseri; Lactobacillus gasseri, Lactobacillus gasser strain HM-644, Table 1, read-out: MIC): > 16 µg/mL
MIC [1]: > 128 µg/mL
MIC (E. faecium NCTC7171; NCTC7171, E. faecium NCTC 7171, Table 10, unit inferred, read-out: Activity (MIC) against E. faecium): ≥ 128 µg/mL
MIC (E. faecium NCTC7171; E. faecium NCTC7171, Table 1, read-out: MIC): > 128 µg/mL
MIC (C. difficile; C. difficile 23691 (VR, vancomycin-resistant), Table 7): 0.125 µg/mL
MIC (C. difficile; C. difficile 23691, Table 9): 0.125 µg/mL
MIC (C. difficile; C. difficile 24923 (VR, vancomycin-resistant), Table 7): 0.125 µg/mL
MIC (C. difficile; C. difficile 24923, Table 9): 0.125 µg/mL
MIC (C. difficile; C. difficile 27081 (FR, fidaxomicin-resistant), Table 7): 0.125 µg/mL
MIC (C. difficile; C. difficile 27081, Table 9): 0.125 µg/mL
MIC (C. difficile; C. difficile 27173 (MR, metronidazole-resistant), Table 7): 0.125 µg/mL
MIC (C. difficile; C. difficile 27173, Table 9): 0.125 µg/mL
MIC (C. difficile; C. difficile ATCC43255, Table 7): 0.125 µg/mL
MIC (C. difficile; C. difficile ATCC43255, Table 9): 0.125 µg/mL
MIC (C. difficile; C. difficile ATCC43598, Table 9): 0.125 µg/mL
MIC (C. difficile; C. difficile BAA-1801, Table 9): 0.125 µg/mL
MIC (C. difficile; C. difficile BAA-1804, Table 9): 0.125 µg/mL
MIC (C. difficile; C. difficile BAA-1812, Table 9): 0.125 µg/mL
MIC (C. difficile; C. difficile BAA-1814, Table 9): 0.125 µg/mL
MIC (C. difficile; C. difficile BAA-1870, Table 7): 0.125 µg/mL
MIC (C. difficile; C. difficile BAA-1870, Table 9): 0.125 µg/mL
MIC (C. difficile; C. difficile HM-89, Table 9): 0.125 µg/mL
MIC (C. difficile; C. difficile HM-745, Table 9): 0.125 µg/mL
MIC (C. difficile; C. difficile HM-746, Table 9): 0.125 µg/mL
MIC (C. difficile; C. difficile HM-747, Table 9): 0.125 µg/mL
MIC (C. difficile; C. difficile NR49292, Table 7): 0.125 µg/mL
MIC (C. difficile; C. difficile NR49292, Table 9): 0.125 µg/mL
MIC (C. difficile; C. difficile NR49310, Table 7): 0.125 µg/mL
MIC (C. difficile; C. difficile NR49310, Table 9): 0.125 µg/mL
MIC (C. difficile; C. difficile NR-13427, Table 9): 0.125 µg/mL
MIC (C. difficile; C. difficile NR-13428, Table 9): 0.125 µg/mL
MIC (C. difficile; C. difficile NR-13430, Table 9): 0.125 µg/mL
MIC (C. difficile; C. difficile NR-13434, Table 9): 0.125 µg/mL
MIC (C. difficile; C. difficile NR-13435, Table 9): 0.125 µg/mL
MIC (C. difficile; C. difficile NR-13436, Table 9): 0.125 µg/mL
MIC (C. difficile; C. difficile NR-13437, Table 9): 0.125 µg/mL
MIC (C. difficile; C. difficile NR-13438, Table 9): 0.125 µg/mL
MIC (C. difficile; C. difficile NR-13553, Table 9): 0.125 µg/mL
MIC (C. difficile; C. difficile NR-32882, Table 9): 0.125 µg/mL
MIC (C. difficile; C. difficile NR-32883, Table 9): 0.125 µg/mL
MIC (C. difficile; C. difficile NR-32884, Table 9): 0.125 µg/mL
MIC (C. difficile; C. difficile NR-32886, Table 9): 0.125 µg/mL
MIC (C. difficile; C. difficile NR-32887, Table 9): 0.125 µg/mL
MIC (C. difficile; C. difficile NR-32888, Table 9): 0.125 µg/mL
MIC (C. difficile; C. difficile NR-32889, Table 9): 0.125 µg/mL
MIC (C. difficile; C. difficile NR-32892, Table 9): 0.125 µg/mL
MIC (C. difficile; C. difficile NR-32897, Table 9): 0.125 µg/mL
MIC (C. difficile; C. difficile NR-32900, Table 9): 0.125 µg/mL
MIC (C. difficile; C. difficile NR-32904, Table 9): 0.125 µg/mL
MIC (C. difficile; C. difficile NR-49277, Table 9): 0.125 µg/mL
MIC (C. difficile; C. difficile NR-49278, Table 9): 0.125 µg/mL
MIC (C. difficile; C. difficile NR-49279, Table 9): 0.125 µg/mL
MIC (C. difficile; C. difficile NR-49280, Table 9): 0.125 µg/mL
MIC (C. difficile; C. difficile NR-49282, Table 9): 0.125 µg/mL
MIC (C. difficile; C. difficile NR-49286, Table 9): 0.125 µg/mL
MIC (C. difficile; C. difficile NR-49288, Table 9): 0.125 µg/mL
MIC (C. difficile; C. difficile NR-49290, Table 9): 0.125 µg/mL
MIC (C. difficile; C. difficile NR-49291, Table 9): 0.125 µg/mL
MIC (C. difficile; C. difficile NR-49293, Table 9): 0.125 µg/mL
MIC (C. difficile; C. difficile NR-49295, Table 9): 0.125 µg/mL
MIC (C. difficile; C. difficile NR-49296, Table 9): 0.125 µg/mL
MIC (C. difficile; C. difficile NR-49299, Table 9): 0.125 µg/mL
MIC (C. difficile; C. difficile NR-49300, Table 9): 0.125 µg/mL
MIC (C. difficile; C. difficile NR-49301, Table 9): 0.125 µg/mL
MIC (C. difficile; C. difficile NR-49303, Table 9): 0.125 µg/mL
MIC (C. difficile; C. difficile NR-49307, Table 9): 0.125 µg/mL
MIC (C. difficile; C. difficile NR-49308, Table 9): 0.125 µg/mL
MIC (C. difficile; C. difficile NR-49309, Table 9): 0.125 µg/mL
MIC (C. difficile; C. difficile NR-49312, Table 9): 0.125 µg/mL
MIC (C. difficile; C. difficile NR-49314, Table 9): 0.125 µg/mL
MIC (C. difficile; C. difficile NR-49315, Table 9): 0.125 µg/mL
MIC (C. difficile; C. difficile NR-49316, Table 9): 0.125 µg/mL
MIC (C. difficile; C. difficile NR-49317, Table 9): 0.125 µg/mL
MIC (C. difficile; C. difficile NR-49319, Table 9): 0.125 µg/mL
MIC (C. difficile; C. difficile NR-49320, Table 9): 0.125 µg/mL
MIC (C. difficile; C. difficile NR-49323, Table 9): 0.125 µg/mL
MIC (C. difficile; C. difficile NR-49324, Table 9): 0.125 µg/mL
MIC (C. difficile; C. difficile NR-49325, Table 9): 0.125 µg/mL
MIC (C. difficile; C. difficile NR-49326, Table 9): 0.125 µg/mL
